Experimental data taken from PubChem BioAssay (NCI).
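Following 48 hours of exposure in 96-well plates, responses at five concentrations were used to interpolate endpoints linearly. The concentration for 50% growth inhibition is given as GI50. TGI marks complete inhibition of growth.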

Columns and labels:
Experiment in all cases: NCI anticancer screen, dose series, 48 h
[1] = test system: 786-0 renal
[2] = test system: A498 renal
[3] = test system: A549 NSCLC
[4] = test system: ACHN renal
[5] = test system: BT-549 breast
[6] = test system: CAKI-1 renal
[7] = test system: CCRF-CEM leukemia
[8] = test system: COLO 205 colon
[9] = test system: DU-145 prostate
[10] = test system: EKVX NSCLC
[11] = test system: HCT-116 colon
[12] = test system: HCT-15 colon
[13] = test system: HL-60(TB) leukemia
[14] = test system: HOP-62 NSCLC
[15] = test system: HOP-92 NSCLC
[16] = test system: HS 578T breast
[17] = test system: HT29 colon
[18] = test system: IGROV1 ovarian
[19] = test system: K-562 leukemia
[20] = test system: KM12 colon
[21] = test system: LOX IMVI melanoma
[22] = test system: M14 melanoma
[23] = test system: MALME-3M melanoma
[24] = test system: MCF7 breast
[25] = test system: MDA-MB-231 breast
[26] = test system: MDA-MB-435
[27] = test system: MOLT-4 leukemia
[28] = test system: NCI-H226 lung
[29] = test system: NCI-H23 lung
[30] = test system: NCI-H460 lung
[31] = test system: NCI-H522 lung
[32] = test system: NCI/ADR-RES ovarian
[33] = test system: OVCAR-3 ovarian
[34] = test system: OVCAR-4 ovarian
[35] = test system: OVCAR-5 ovarian
[36] = test system: OVCAR-8 ovarian
[37] = test system: PC-3 prostate
[38] = test system: RPMI-8226 leukemia
[39] = test system: RXF 393 renal
[40] = test system: SF-268 CNS
[41] = test system: SF-295 CNS
[42] = test system: SF-539 CNS
[43] = test system: SK-MEL-2 melanoma
[44] = test system: SK-MEL-28 melanoma
[45] = test system: SK-MEL-5 melanoma
[46] = test system: SK-OV-3 ovarian
[47] = test system: SN12C renal
[48] = test system: SNB-19 CNS
[49] = test system: SNB-75 CNS
[50] = test system: SR leukemia
[51] = test system: SW-620 colon
[52] = test system: T-47D breast
[53] = test system: TK-10 renal
[54] = test system: U251 CNS
[55] = test system: UACC-257 melanoma
[56] = test system: UACC-62 melanoma
[57] = test system: UO-31 renal

O=[N+]([O-])c1cc([N+](=O)[O-])c(NN=C(c2ccc(O)cc2)c2ccc(O)cc2)cc1Cl
GI50 [1]: 2150 nM
TGI [1]: 4.26 µM
GI50 [2]: 2020 nM
TGI [2]: 3.64 µM
GI50 [3]: 2840 nM
TGI [3]: 6.59 µM
GI50 [4]: 1880 nM
TGI [4]: 3.45 µM
GI50 [5]: 2080 nM
TGI [5]: 4.46 µM
GI50 [6]: 1700 nM
TGI [6]: 3.34 µM
GI50 [7]: 716 nM
TGI [7]: 2290 nM
GI50 [8]: 2400 nM
TGI [8]: 5.31 µM
GI50 [9]: 1140 nM
TGI [9]: 2640 nM
GI50 [10]: 2330 nM
TGI [10]: 5.1 µM
GI50 [11]: 1230 nM
TGI [11]: 3.11 µM
GI50 [12]: 407 nM
TGI [12]: 1520 nM
GI50 [13]: 684 nM
TGI [13]: 2420 nM
GI50 [14]: 2440 nM
TGI [14]: 4.99 µM
GI50 [15]: 463 nM
TGI [15]: 2480 nM
GI50 [16]: 742 nM
TGI [16]: 2040 nM
GI50 [17]: 1540 nM
TGI [17]: 4.07 µM
GI50 [18]: 449 nM
TGI [18]: 1570 nM
GI50 [19]: 4.89 µM
TGI [19]: > 100 µM
GI50 [20]: 1830 nM
TGI [20]: 3.73 µM
GI50 [21]: 409 nM
TGI [21]: 1600 nM
GI50 [22]: 1830 nM
TGI [22]: 3.94 µM
GI50 [23]: 1970 nM
TGI [23]: 3.98 µM
GI50 [24]: 1370 nM
TGI [24]: 3.3 µM
GI50 [25]: 1740 nM
TGI [25]: 3.29 µM
GI50 [26]: 1820 nM
TGI [26]: 3.6 µM
GI50 [27]: 832 nM
TGI [27]: 3.11 µM
GI50 [28]: 2010 nM
TGI [28]: 3.84 µM
GI50 [29]: 1980 nM
TGI [29]: 4.45 µM
GI50 [30]: 1920 nM
TGI [30]: 4 µM
GI50 [31]: 2000 nM
TGI [31]: 4.22 µM
GI50 [32]: 1890 nM
TGI [32]: 3.89 µM
GI50 [33]: 912 nM
TGI [33]: 2240 nM
GI50 [34]: 1400 nM
TGI [34]: 2950 nM
GI50 [35]: 2200 nM
TGI [35]: 4.15 µM
GI50 [36]: 1790 nM
TGI [36]: 4.6 µM
GI50 [37]: 813 nM
TGI [37]: 2330 nM
GI50 [38]: 1980 nM
TGI [38]: 4.07 µM
TGI [39]: 350 nM
GI50 [40]: 1700 nM
TGI [40]: 3.29 µM
GI50 [41]: 1840 nM
TGI [41]: 3.65 µM
GI50 [42]: 1750 nM
TGI [42]: 3.13 µM
GI50 [43]: 3.06 µM
TGI [43]: 10.6 µM
GI50 [44]: 685 nM
TGI [44]: 1730 nM
GI50 [45]: 1470 nM
TGI [45]: 2910 nM
GI50 [46]: 2040 nM
TGI [46]: 4.15 µM
GI50 [47]: 1780 nM
TGI [47]: 3.36 µM
GI50 [48]: 366 nM
TGI [48]: 2300 nM
GI50 [49]: 1440 nM
TGI [49]: 3.08 µM
GI50 [50]: 1680 nM
GI50 [51]: 348 nM
TGI [51]: 1220 nM
GI50 [52]: 572 nM
TGI [52]: 2120 nM
GI50 [53]: 2260 nM
TGI [53]: 4.66 µM
GI50 [54]: 1870 nM
TGI [54]: 3.55 µM
GI50 [55]: 2170 nM
TGI [55]: 3.89 µM
GI50 [56]: 1760 nM
TGI [56]: 3.28 µM
GI50 [57]: 1760 nM
TGI [57]: 3.39 µM
